{"source": "patent US9789121B2", "about": "“Small molecules that replace or agonize p53 function” (BUCK INSTITUTE, priority 2004, dated 2017)", "key": {"[1]": {"system": "Saos-2", "assay": "G6 sensitivity of osteosarcoma cell line Saos-2 (p53 null)", "assay_type": "cell-based", "details": "Saos-2, osteosarcoma, listed as Rp53-1"}, "[2]": {"system": "human osteosarcoma xenografted nude mice", "assay": "G6 treatment of human osteosarcoma xenografted nude mice", "assay_type": "in vivo", "description": "Initial trials of G6 in human osteosarcoma xenografted nude mice have shown promise (FIG. 10). Mice bearing p53 abnormal tumors have responded well to G6. […] Further mouse studies are currently underway."}, "[3]": {"system": "LNcap", "assay": "G6 sensitivity of prostate cell line LNcap (p53 WT)", "assay_type": "cell-based", "details": "listed as Rp53-1"}, "[4]": {"system": "ColoHSR", "assay": "G6 sensitivity of colon cell line ColoHSR (p53 Mt)", "assay_type": "cell-based", "details": "listed as Rp53-1"}, "[5]": {"system": "PC3", "assay": "G6 sensitivity of prostate cell line PC3 (p53 null)", "assay_type": "cell-based", "details": "listed as Rp53-1"}, "[6]": {"system": "p53/Bax reporter in HEK293T cells", "assay": "p53/Bax luciferase reporter system in HEK293T cells", "assay_type": "cell-based", "description": "To identify p53 mimics, we developed a live mammalian cell system that reports the promotion of the expression of the pro-apoptotic Bax protein. The bax promoter consists of a 372 nucleotide 5′ UTR, a TATAA sequence, and several consensus sequences that bind p53, resulting in up-regulation of Bax expression (see, e.g., FIG. 1). By expressing these sites upstream of the gene encoding luciferase in HEK293T cells, we have established a novel set of reporter cell lines. These cells provide a system which allows identification of both direct activators of Bax expression and replacements of an apoptotic function of p53. In initial studies, cotransfection of a p53 expression plasmid with a reporter bearing oligomerized consensus binding sites yielded strongly luminescent cells, whereas cotransfection with an irrelevant plasmid gave no luminescence. […] By employing the Multi-Probe H liquid handling robotic system and the ultra-sensitive Top-Count luminometer, high-speed screening of thousands of compounds has been enabled at the Buck Institute. We obtained and screened a 2000 compound small molecule library made available by the National Cancer Institute in our p53 reporter system in HEK293T cells."}, "[7]": {"system": "breast cancer cells", "assay": "Single pulse treatment of breast cancer cells with G6", "assay_type": "cell-based", "details": "single pulse of G6 in the nanomolar range", "description": "Thus G6 appears to be a potent treatment."}, "[8]": {"system": "MDA-435", "assay": "G6 sensitivity of breast cancer cells MDA-435 (p53 Mt)", "assay_type": "cell-based, human", "details": "MDA-435, breast, listed as Rp53-1", "protocol": "To assess the ability of the small molecule compound Rp53-1 to mimic the transcription-promoting functions of p53 leading to Bax expression and induction of cell death, p53-mutated MDA-MB-435 and p53-wild-type MCF-7 human breast cancer cells were treated with Rp53-1. […] Lack of toxicity in cells generating normal p53 activity (all other human cells) would reduce possible side effects. Inherent in the initial drug design was a strategy to develop a therapy that targets mutant p53 containing cells and that would leave healthy cells expressing normal p53 unaffected (FIG. 3)."}, "[9]": {"system": "HT29", "assay": "G6 sensitivity of colon cell line HT29 (p53 Mt)", "assay_type": "cell-based", "details": "listed as Rp53-1"}, "[10]": {"system": "p53 defective tumor cell line", "assay": "G6 treatment of p53 defective tumor cell lines", "assay_type": "cell-based", "details": "every p53 defective tumor cell line treated", "description": "(§1) Inherent in the initial drug design was a strategy to develop a therapy that targets mutant p53 containing cells and that would leave healthy cells expressing normal p53 unaffected (FIG. 3)."}, "[11]": {"system": "Lovo", "assay": "G6 sensitivity of colon cell line Lovo (p53 WT)", "assay_type": "cell-based", "details": "listed as Rp53-1"}, "[12]": {"system": "DU145", "assay": "G6 sensitivity of prostate cell line DU145 (p53 Mt)", "assay_type": "cell-based", "details": "listed as Rp53-1"}, "[13]": {"system": "wild type cells from corresponding normal tissue", "assay": "G6 treatment of wild type cells from corresponding normal tissue", "assay_type": "cell-based", "description": "as §1"}, "[14]": {"system": "SW480", "assay": "G6 sensitivity of colon cell line SW480 (p53 Mt)", "assay_type": "cell-based", "details": "listed as Rp53-1"}, "[15]": {"system": "p53 Reporter in p53 Mt and Null Cells", "assay": "p53 reporter in p53 Mt and Null cells", "assay_type": "cell-based"}}, "note": "Entries after “also recorded” stand apart in the source; their conditions may differ.", "data": [{"molecule": "Cc1cc(OCc2nc(N)nc(N)c2-c2ccc(Cl)c(Cl)c2)ccc1[N+](=O)[O-]", "note": "[G6]", "values": [{"measurement": "G6 Sensitivity", "setting": "[1]", "result": "sensitive"}, {"measurement": "adverse side effects", "setting": "[2]; human osteosarcoma xenografted nude mice treated with G6", "result": "none of the mice have shown adverse side effects"}, {"measurement": "tumor regression", "setting": "[2]; nude mice implanted with human osteosarcoma tissue, p53 abnormal tumors", "result": "complete regression of tumor"}, {"measurement": "G6 Sensitivity", "setting": "[3]", "result": "resistant"}, {"measurement": "G6 Sensitivity", "setting": "[4]", "result": "sensitive"}, {"measurement": "G6 Sensitivity", "setting": "[5]", "result": "sensitive"}, {"measurement": "expression of luciferase levels relative to transfected wild-type p53", "setting": "[6]; high concentrations (10 μM)", "result": "greater than transfected wild-type p53"}, {"measurement": "luciferase expression and activity (p53 reporter)", "setting": "[6]; listed as Rp53-1", "result": "activates the p53/Bax reporter; also recorded: significant levels of luciferase activity"}, {"measurement": "activation of the cell death program / drug efficacy", "setting": "[7]", "result": "complete drug efficacy; also recorded: sufficient to activate the cell death program"}, {"measurement": "G6 Sensitivity", "setting": "[8]", "result": "sensitive"}, {"measurement": "G6 Sensitivity", "setting": "[9]", "result": "sensitive"}, {"measurement": "susceptibility to G6", "setting": "[10]", "result": "showed susceptibility"}, {"measurement": "G6 Sensitivity", "setting": "[11]", "result": "resistant"}, {"measurement": "G6 Sensitivity", "setting": "[12]", "result": "sensitive"}, {"measurement": "effect of G6 on wild type cells", "setting": "[13]", "result": "unaffected"}, {"measurement": "G6 Sensitivity", "setting": "[14]", "result": "sensitive"}, {"measurement": "induction of p53 Reporter", "setting": "[15]", "result": "induces p53 Reporter"}]}]}
